9 compounds from ChEMBL document CHEMBL1135297, “Enantioselective synthesis of S-(+)-2beta-carboalkoxy-3alpha-[bis(4-fluorophenyl)methoxy]tropanes as novel probes for the dopamine transporter” (Bioorg Med Chem Lett, 2002) can be followed below.

pIC50, pKi: −log10 of the molar value.

One may read the pKi as −log10 of the Ki, conventionally taken in molar units. A higher pKi goes with a low Ki. In general, pIC50 refers to the IC50 on a negative log10 scale, so that one unit is a factor of ten. A lower pIC50 goes with a high IC50.

The target of test [1] is Sodium-dependent dopamine transporter (Rattus norvegicus, UniProt P23977). Description: Ability to displace [3H]WIN-35 radioligand for the dopamine transporter 428 DAT in rat brain. The format is tissue-based.
Sodium-dependent dopamine transporter, sequence (P23977 whole entry): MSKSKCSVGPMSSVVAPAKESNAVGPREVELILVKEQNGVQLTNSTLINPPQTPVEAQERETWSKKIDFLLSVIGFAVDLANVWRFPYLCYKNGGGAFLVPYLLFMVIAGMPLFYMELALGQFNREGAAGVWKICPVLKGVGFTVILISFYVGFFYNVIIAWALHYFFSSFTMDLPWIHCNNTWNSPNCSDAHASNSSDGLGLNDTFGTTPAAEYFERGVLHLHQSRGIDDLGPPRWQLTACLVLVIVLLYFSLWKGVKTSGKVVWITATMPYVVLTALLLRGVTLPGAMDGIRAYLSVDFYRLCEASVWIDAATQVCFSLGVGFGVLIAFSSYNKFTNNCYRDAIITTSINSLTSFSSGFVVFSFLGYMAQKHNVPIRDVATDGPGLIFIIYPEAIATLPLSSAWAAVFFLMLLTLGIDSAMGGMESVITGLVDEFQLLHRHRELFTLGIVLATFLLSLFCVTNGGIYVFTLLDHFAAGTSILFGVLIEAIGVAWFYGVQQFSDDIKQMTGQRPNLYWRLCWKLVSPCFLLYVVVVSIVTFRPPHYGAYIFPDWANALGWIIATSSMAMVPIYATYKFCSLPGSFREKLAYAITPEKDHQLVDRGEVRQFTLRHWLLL
In test [2] the target is T1, Muscarinic acetylcholine receptor M1 (Rattus norvegicus, UniProt P08482).
T1 sequence (P08482 whole entry): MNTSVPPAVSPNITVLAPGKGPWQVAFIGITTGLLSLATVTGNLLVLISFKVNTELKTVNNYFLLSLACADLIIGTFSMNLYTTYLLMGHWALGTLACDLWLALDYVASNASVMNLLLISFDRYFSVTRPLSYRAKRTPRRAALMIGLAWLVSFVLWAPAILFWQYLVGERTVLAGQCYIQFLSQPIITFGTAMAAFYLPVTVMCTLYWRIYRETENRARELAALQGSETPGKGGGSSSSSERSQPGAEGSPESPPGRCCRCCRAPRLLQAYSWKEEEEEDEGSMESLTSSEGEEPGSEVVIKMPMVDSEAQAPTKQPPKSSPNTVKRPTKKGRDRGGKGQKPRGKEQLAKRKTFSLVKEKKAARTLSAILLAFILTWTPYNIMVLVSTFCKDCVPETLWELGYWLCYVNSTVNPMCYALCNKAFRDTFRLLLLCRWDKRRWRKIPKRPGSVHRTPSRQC
Description: Ability to displace [3H]pirenzepine radioligand for the Muscarinic acetylcholine receptor M1 in rat brain. The format is tissue-based.

In test [3] the target is Norepinephrine transporter (Rattus norvegicus, UniProt Q9WTR4). Description: Ability to displace [3H]-nisoxatine radioligand for the Norepinephrine transporter in rat brain. The test is classed as tissue-based.
Norepinephrine transporter, sequence (Q9WTR4 whole entry): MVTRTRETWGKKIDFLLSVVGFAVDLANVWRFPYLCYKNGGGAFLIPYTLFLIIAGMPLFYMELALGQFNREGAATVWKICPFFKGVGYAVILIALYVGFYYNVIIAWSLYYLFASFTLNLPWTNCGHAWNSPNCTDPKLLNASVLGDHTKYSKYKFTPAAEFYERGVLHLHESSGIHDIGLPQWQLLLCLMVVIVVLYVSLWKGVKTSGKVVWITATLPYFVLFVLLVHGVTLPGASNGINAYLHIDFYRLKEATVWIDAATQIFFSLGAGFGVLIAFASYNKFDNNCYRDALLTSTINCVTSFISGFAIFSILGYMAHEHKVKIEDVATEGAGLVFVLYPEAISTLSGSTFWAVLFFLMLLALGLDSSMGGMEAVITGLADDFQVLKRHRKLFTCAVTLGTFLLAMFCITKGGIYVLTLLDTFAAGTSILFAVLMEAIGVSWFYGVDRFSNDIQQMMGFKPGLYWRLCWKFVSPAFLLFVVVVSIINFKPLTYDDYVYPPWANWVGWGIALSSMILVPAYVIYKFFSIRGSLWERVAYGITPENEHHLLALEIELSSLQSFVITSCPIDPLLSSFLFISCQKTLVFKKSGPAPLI
The species entered for another test is Rattus norvegicus. Kind of test: Inhibition of [3H]DA uptake in rat synaptosomes. The format is functional, Brain.
For test [4], the target named is Sodium-dependent serotonin transporter (Rattus norvegicus, UniProt P31652). Kind of test: Ability to displace [3H]citalopram radioligand, for the Serotonin transporter in rat brain. The test is classed as tissue-based.
Sodium-dependent serotonin transporter, sequence (P31652 whole entry): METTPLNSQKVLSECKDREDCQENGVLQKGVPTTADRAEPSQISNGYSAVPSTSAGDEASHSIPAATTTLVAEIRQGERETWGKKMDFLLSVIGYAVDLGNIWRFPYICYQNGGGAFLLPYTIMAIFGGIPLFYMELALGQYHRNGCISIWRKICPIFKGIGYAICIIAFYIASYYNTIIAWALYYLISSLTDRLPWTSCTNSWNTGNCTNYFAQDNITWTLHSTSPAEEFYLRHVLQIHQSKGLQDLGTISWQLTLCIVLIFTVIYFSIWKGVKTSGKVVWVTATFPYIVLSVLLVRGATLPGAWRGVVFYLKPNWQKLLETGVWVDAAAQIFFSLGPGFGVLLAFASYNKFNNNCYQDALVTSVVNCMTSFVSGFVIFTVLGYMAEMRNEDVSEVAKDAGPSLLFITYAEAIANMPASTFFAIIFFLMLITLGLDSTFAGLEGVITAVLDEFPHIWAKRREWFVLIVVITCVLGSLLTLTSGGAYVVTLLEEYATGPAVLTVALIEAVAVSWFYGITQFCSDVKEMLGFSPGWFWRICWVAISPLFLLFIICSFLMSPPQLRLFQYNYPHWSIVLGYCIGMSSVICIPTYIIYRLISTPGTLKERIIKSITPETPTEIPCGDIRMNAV

Turning to `CN1C2CCC1C(C(=O)OCc1ccccc1)C(OC(c1ccc(F)cc1)c1ccc(F)cc1)C2` (stereo unspecified), the pKi in test [1] was 7.40; in test [2] it was 5.36; in test [3], 5.65; in test [4] it was 5.69. Further, the negative logarithm of the IC50 (pIC50) in the test listed under Rattus norvegicus (Rattus norvegicus, Brain) was 8.66.
Regarding `COC(=O)C1C(OC(c2ccc(F)cc2)c2ccc(F)cc2)CC2CCC1N2C` (racemic), the pKi in test [1] was 7.67; in test [2], 6.52; in test [3], 6.32; in test [4] it was 5.76. For the same compound, the pIC50 in the test filed under Rattus norvegicus is 8.54.
Take `CCOC(=O)C1C(OC(c2ccc(F)cc2)c2ccc(F)cc2)CC2CCC1N2C` (racemic): the pKi in test [1] was 7.58; in test [2] it was 5.73; in test [3], 5.99; in test [4] it was 5.43. Moreover, in the test listed under Rattus norvegicus (Rattus norvegicus, Brain), the pIC50 is 8.44.
For `CN1C2CCC1C(C(=O)OCc1ccccc1)C(OC(c1ccc(F)cc1)c1ccc(F)cc1)C2` (racemic), the pKi was 7.04 in test [1], 5.29 in test [2], 5.39 in test [3] and 5.48 in test [4]. For the same compound, in the test filed under Rattus norvegicus, the pIC50 was 8.46.
In the case of `CC(C)OC(=O)C1C(OC(c2ccc(F)cc2)c2ccc(F)cc2)CC2CCC1N2C` (racemic), the negative-log Ki (pKi) in test [1] is 7.31; in test [2], 5.12; in test [3] it was 5.70; in test [4], 4.86. The pIC50 in the test filed under Rattus norvegicus was 8.17.
For the compound `COC(=O)C1C(OC(c2ccc(F)cc2)c2ccc(F)cc2)CC2CCC1N2C` (single isomer, unassigned; (+)), the negative logarithm of the Ki (pKi) is 7.89 in test [1], 6.88 in test [2], 6.57 in test [3] and 6.16 in test [4]. Besides, the pIC50 in the test filed under Rattus norvegicus (Rattus norvegicus, Brain) was 8.82.
With `CCOC(=O)C1C(OC(c2ccc(F)cc2)c2ccc(F)cc2)CC2CCC1N2C` (single isomer, unassigned; (+)), the pKi in test [1] is 7.77; in test [2], 5.72; in test [3], 6.20; in test [4], 5.73.
As for `CC(C)OC(=O)C1C(OC(c2ccc(F)cc2)c2ccc(F)cc2)CC2CCC1N2C` (single isomer, unassigned; (+)), the pKi was 7.63 in test [1], 5.57 in test [2], 6.19 in test [3] and 4.92 in test [4]. In addition, the pIC50 in the test listed under Rattus norvegicus (Rattus norvegicus, Brain) was 8.21.
For the compound `CN1C2CCC1CC(OC(c1ccc(F)cc1)c1ccc(F)cc1)C2` (stereo unspecified) [DIFLUOROBENZTROPINE], the pKi was 6.21 in test [3] and 5.49 in test [4].
